The test system of data set [1] is mitochondrial membrane potential. The class given is cell-based, human.
In data set [2] the test system is human leukemia cell lines. The class given is cell-based.
The nature of the next data set: in vivo. As to conditions: Swiss Webster, mouse.
The next data set has as its system NB4 cells. The data set is classed as cell-based, human.
For data set [3] the following is noted: pH 5.
Data set [4] has as its system blood mononuclear cells from leukemia patients. The class given is cell-based, human.
The nature of another data set: physchem. As to conditions: water.
In data set [5] the test system is panel of 60 tumor cell lines. The data set is classed as cell-based, human.
For data set [6] the following is noted: Swiss Webster, mouse, in vivo; for Dead/Total Number / Dead/Total Number for IP Administration: ip.

Where two headings read alike, the source gives them in different places.

Broadly, the LD50 is the dose at which mortality reaches 50%. A higher LD50 goes with a less toxic substance. What is called solubility is how much of the substance goes into solution per volume. Low readings indicate a poorly soluble substance, high ones a readily soluble substance.

For `C[As](C)SC[C@H](NC(=O)CC[C@H](N)C(=O)O)C(=O)NCC(=O)O` [SGLU1, S-(dimethylarsino) glutathione], the “change of the potential of mitochondrial membrane (CMXRos staining)” value in data set [1] is reported as “involves change of the potential of mitochondrial membrane”. Further, in data set [2], the “anti-cancer activity against a panel of human leukemia cell lines” value is given as “significant anti-cancer activity”. This compound also returned an LD50 in the data set “in vivo” of 350 mg/kg. The compound also displayed an MTD in the data set “in vivo” (iv) of 350 mg/kg. In the data set on normal donor cells, the “toxicity to normal cells, long-term clonogenic assay” value is “less toxic then arsenic trioxide to normal cells”. The “induction of maturation (CD11b expression)” value in the data set on NB4 cells was “do not induce maturation”. The loss entry in [3] is listed as “Less than 10%”. For the same compound, the “activity against blood cells from patients with leukemia” value in [4] is given as “significant activity against blood tumor cells from patients with leukemia”. Besides, in the data set “physchem”, the solubility is roughly 60 mg/mL. The “anticancer activity, NIH panel” value in data set [5] is reported as “showed evidence of activity at low concentrations against a variety of tumor cell lines”. For the same compound, the “tolerance (mortality)” value in [6] is “tolerated the 178 mg/kg and the 285 mg/kg doses of SGLU1 well”. Besides, the “Dead/Total Number” value in [6] (178 mg/kg) was 0/5; in data set [6] (285 mg/kg), 1/5; in [6] (357 mg/kg), 5/5. The “Dead/Total Number for IP Administration” value is reported as 0/5 in [6] (318 mg/kg) and 4/5 in data set [6] (375 mg/kg). In addition, the “Dead/Total Number for IV Administration” value is given as 1/5 in [6] (318 mg/kg) and 5/5 in data set [6] (375 mg/kg).
